In patent US6794396B2, “Substituted pyridines useful for inhibiting cholesteryl ester transfer protein activity” (Pharmacia Corporation, priority 1998, dated 2004):
Several values for one entry are separate records, joined by “and”; a condition that tells them apart may be missing. Equal entries are not always repeated. Where two headings read alike, the source gives them in different places. Each block holds one compound with its values, some of them ahead of it.

Target: T1, CETP (Homo sapiens, UniProt P11597)
T1 construct: made in house; host or cells: CHO cells (serum-free conditioned medium)
T1 sequence (P11597 18-493): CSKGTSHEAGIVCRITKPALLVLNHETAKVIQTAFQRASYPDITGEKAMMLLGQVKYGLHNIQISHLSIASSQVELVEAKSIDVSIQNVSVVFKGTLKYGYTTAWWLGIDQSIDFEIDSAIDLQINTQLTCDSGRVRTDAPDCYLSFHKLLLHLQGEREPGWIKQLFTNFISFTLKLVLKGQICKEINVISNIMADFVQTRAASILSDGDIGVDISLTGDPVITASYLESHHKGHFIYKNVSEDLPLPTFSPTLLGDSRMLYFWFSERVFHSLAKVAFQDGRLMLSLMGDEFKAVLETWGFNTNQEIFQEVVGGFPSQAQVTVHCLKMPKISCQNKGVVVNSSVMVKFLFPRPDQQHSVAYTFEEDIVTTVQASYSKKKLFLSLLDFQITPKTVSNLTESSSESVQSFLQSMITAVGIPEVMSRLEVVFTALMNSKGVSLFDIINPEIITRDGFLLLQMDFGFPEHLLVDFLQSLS
Assay: CETP activity in vitro: transfer of [3H]CE from HDL donor to LDL acceptor particles
Type: biochemical
Details: for remaining activity at 100 µM: 2 h, read-out: % Transfer @ 100 μm
Protocol: The ability of compounds to inhibit CETP were assessed using an in vitro assay that measured the rate of transfer of radiolabeled cholesteryl ester ([^3H]CE) from HDL donor particles to LDL acceptor particles. Details of the assay are provided by Glenn et al. (“Quantification of Cholesteryl Ester Transfer Protein (CETP): A) CETP Activity and B) Immunochemical Assay of CETP Protein,” Meth. Enzymol., Glenn and Melton (Meth. Enzymol., 263, 339-351 (1996), which is incorporated herein by reference). CETP was obtained from the serum-free conditioned medium of CHO cells transfected with a cDNA for CETP (Wang, S. et al. J. Biol Chem. 267, 17487-17490 (1992), which is incorporated herein by reference).
To measure CETP activity, [^3H]CE-labeled HDL, LDL, CETP and assay buffer (50 mM tris(hydroxymethyl)amino-methane, pH 7.4; 150 mM sodium chloride; 2 mM ethylenediamine-tetraacetic acid; 1% bovine serum albumin) were incubated in a volume of 200 μl, for 2 hours at 37° C. in 96 well plates. LDL was differentially precipitated by the addition of 50 μl of 1% (w/v) dextran sulfate/0.5 M magnesium chloride, mixed by vortex, and incubated at room temperature for 10 minutes The solution (200μl) was transferred to a filter plate (Millipore). After filtration, the radioactivity present in the precipitated LDL was measured by liquid scintillation counting.
This value was defined as the IC50.

[1] = Table 7, compounds of formula T-7, read-out: IC50
[2] = 50% inhibition of [3H]CE transfer from HDL to LDL, 2 hours at 37° C., read-out: IC50(μm)
[3] = IC50(μm), 50% inhibition of [3H]CE transfer from HDL to LDL, 2 hours at 37° C.
[4] = Table 6, compounds of formula T-6, read-out: IC50

Structure (SMILES): COC(=O)c1c(C(F)F)nc(C(F)(F)F)c(SCc2ccc(OCc3ccccc3)c(OCc3ccccc3)c2)c1CC(C)C [Compound 222]
IC50 [1]: 15 µM

Structure (SMILES): COC(=O)c1c(C(F)F)nc(C(F)(F)F)c(C(=O)OC)c1Cc1ccnc(SC)n1 [Compound 67, Dimethyl 2-(Difluoromethyl)-4-{[(2-methylthio)pyrimidin-4-yl]methyl}-6-(trifluoromethyl)-3,5-pyridinedicarboxylate]
IC50 [2]: 60 µM

Structure (SMILES): COC(=O)c1c(C(F)F)nc(C(F)(F)F)c(SCc2ccc(C(F)(F)F)cc2C(F)(F)F)c1CC(C)C [Compound 234]
IC50 [1]: 20 µM

Structure (SMILES): COC(=O)c1c(C(F)F)nc(C(F)(F)F)c(SCc2ccc(OCc3ccccc3)cc2)c1CC(C)C [Compound 224]
IC50 [1]: 25 µM

Structure (SMILES): COC(=O)c1c(C(F)F)nc(C(F)(F)F)c(N=C(SC)SC)c1CC(C)C [Compound 42, Methyl 5-{[Bis(methylthio)methylene]amino}-2-(difluoromethyl)-4-(2-methylpropyl)-6-(trifluoromethyl)-3-pyridinecarboxylate]
IC50 [3]: 50 µM

Structure (SMILES): COC(=O)c1c(C(F)F)nc(C(F)(F)F)c(CCl)c1CC(C)C [Compound 83, Methyl 5-Chloromethyl-2-(difluoromethyl)-4-(2-methylpropyl)-6-(trifluoromethyl)-3-pyridinecarboxylate]
IC50 [2]: 80 µM

Structure (SMILES): COC(=O)c1c(OC(C)C)ccnc1C(F)(F)F [Compound 127, Methyl 4-(1-Methylethoxy)-2-(trifluoromethyl)-3-pyridinecarboxylate]
remaining activity at 100 µM: 90%

Structure (SMILES): CC(C)Cc1c(C(=O)OC(C)(C)C)c(C(F)F)nc(C(F)(F)F)c1C(=O)OC(C)(C)C [Compound 9, Di-t-Butyl 2-(difluoromethyl)-4-(2-methylpropyl)-6-(trifluoromethyl)-3,5-pyridinedicarboxylate]
IC50 [3]: 20 µM

Structure (SMILES): CC(C)c1ccc(C(O)c2c(C(F)F)nc(C(F)(F)F)c(CO)c2-c2ccccc2)cc1 (stereo not drawn) [Compound 275]
IC50 (Table 8, read-out: IC50): > 100 µM

Structure (SMILES): CCOC(=O)c1c(C(F)(F)F)nc(C(F)(F)F)c(C)c1Sc1ccc(C(C)C)cc1 [Compound 11, Ethyl 2,6-Bis(trifluoromethyl)-4-[4-(isopropylphenyl)thio]-5-methyl-3-pyridinecarboxylate]
IC50 [2]: 25 µM

Structure (SMILES): CCOC(=O)c1c(C(F)(F)F)nc(C(F)F)c(C(F)c2ccc(C(C)C)cc2)c1-c1ccccc1 (stereo not drawn) [Compound 271]
IC50 (Table 8, read-out: IC50): 70 µM

Structure (SMILES): COC(=O)c1c(C(F)F)nc(C(F)(F)F)c(CSC(=O)N(C)C)c1CC(C)C [Compound 79]
IC50 [2]: 75 µM

Structure (SMILES): COC(=O)Sc1c(C(F)(F)F)nc(C(F)F)c(C(=O)OC)c1CC(C)C [Compound 6, Methyl 2-(Difluoromethyl)-4-(2-methylpropyl)-5-[(methoxycarbonyl)thio]-6-(trifluoromethyl)-3-pyridinecarboxylate]
IC50 [3]: 8 µM

Structure (SMILES): COC(=O)c1c(C(F)F)nc(C(F)(F)F)c(CSc2ccc(C(C)(C)C)cc2)c1CC(C)C [Compound 3, Methyl 5-(4-t-Butylphenylthiomethyl)-2-(difluoromethyl)-4-(2-methylpropyl)-6-(trifluoromethyl)-3-pyridinecarboxylate]
IC50 [2]: 9 µM

Structure (SMILES): COC(=O)c1c(C(F)F)nc(C(F)(F)F)c(-c2ncco2)c1CC(C)C [Compound 110, Methyl 2-(difluoromethyl)-4-(2-methylpropyl)-5-(2-oxazolyl)-6-(trifluoromethyl)-3-pyridinecarboxylate]
remaining activity at 100 µM: 76%

Structure (SMILES): O=C(c1ccc(Cl)cc1)c1c(C(F)(F)F)nc(C(F)F)c(CO)c1-c1ccccc1 [Compound 264]
IC50 (Table 8, read-out: IC50): 30 µM

Structure (SMILES): COC(=O)c1c(C(F)F)nc(C(F)(F)F)c(C(=O)Oc2cccc(OC)c2)c1CC(C)C [Compound 165, 3-Methyl 5-(3-Methoxyphenyl) 2-(Difluoromethyl)-4-(2-methylpropyl)-6-(trifluoromethyl)-3,5-pyridicarboxylate]
IC50 [2]: > 100 µM and 70 µM

Structure (SMILES): COC(=O)c1c(C(F)F)nc(C(F)(F)F)c(SCC(N)=O)c1CC(C)C [Compound 145]
% Transfer @ 100 μm (100 μm): 64%

Structure (SMILES): O=Cc1c(C(F)F)nc(C(F)(F)F)c(C(=O)c2ccc3ccccc3c2)c1-c1ccccc1 [Compound 286]
IC50 (Table 8, read-out: IC50): 11.7 µM

Structure (SMILES): COC(=O)c1c(C(F)F)nc(C(F)(F)F)c(CSc2nc3ccc([N+](=O)[O-])cc3[nH]2)c1CC(C)C [Compound 190, Methyl 5-[(5-Nitrobenzimidazol-2-yl)thiomethyl]-2-(difluoromethyl)-4-(2-methylpropyl)-6-(trifluoromethyl)-3-pyridinecarboxylate]
IC50 [4]: 25 µM

Structure (SMILES): OCc1c(C(F)(F)F)nc(C(F)F)c(CN2CCCC2)c1-c1ccccc1 [Compound 297]
IC50 (Table 8, read-out: IC50): > 100 µM

Structure (SMILES): Fc1ccc(-c2c(COCc3ccccc3)c(C(F)(F)F)nc(C(F)F)c2C(F)c2ccc(C(F)(F)F)cc2)cc1 (stereo not drawn) [Compound 248]
IC50 (Table 8, read-out: IC50): 77 µM

Structure (SMILES): COC(=O)c1c(C(F)F)nc(C(F)(F)F)c(C2SCCS2)c1CC(C)C [Compound 61]
IC50 [3]: 60 µM

Structure (SMILES): COC(=O)c1c(C(F)F)nc(C(F)(F)F)c(C(=O)OC)c1CCC(C)C [Compound 49]
IC50 [3]: 50 µM

Structure (SMILES): O=C(c1ccc(Cl)cc1)c1c(C(F)(F)F)nc(C(F)F)c(CO)c1-c1ccccc1 [Compound 258]
IC50 (Table 8, read-out: IC50): 15 µM

Other lines, results leading:

IC50 [4]: 60 µM
Structure (SMILES): COC(=O)c1c(C(F)F)nc(C(F)(F)F)c(CSc2ccccc2OC)c1CC(C)C [Compound 208, Methyl 5-[(2-Methoxyphenyl)thiomethyl]-2-(difluoromethyl)-4-(2-methylpropyl)-6-(trifluoromethyl)-3-pyridinecarboxylate]

IC50 [4]: 20 µM
Structure (SMILES): COC(=O)c1c(C(F)F)nc(C(F)(F)F)c(CSc2ccc(Br)cc2)c1CC(C)C [Compound 193, Methyl 5-[(4-Bromophenyl)thiomethyl]-2-(difluoromethyl)-4-(2-methylpropyl)-6-(trifluoromethyl) -3-pyridinecarboxylate]

IC50 [4]: 20 µM
Structure (SMILES): COC(=O)c1c(C(F)F)nc(C(F)(F)F)c(CSc2nc3ccccc3[nH]2)c1CC(C)C [Compound 210, Methyl 5-[(Benzimidazol-2-yl)thiomethyl]-2-(difluoromethyl)-4-(2-methylpropyl)-6-(trifluoromethyl)-3-pyridinecarboxylate]

IC50 [4]: 30 µM
Structure (SMILES): COC(=O)c1c(C(F)F)nc(C(F)(F)F)c(CSc2c(Cl)cccc2Cl)c1CC(C)C [Compound 201, Methyl 5-[(2,6-Dichlorophenyl)thiomethyl]-2-(difluoromethyl)-4-(2-methylpropyl)-6-(trifluoromethyl)-3-pyridinecarboxylate]

IC50 [4]: 15 µM
Structure (SMILES): COC(=O)c1c(C(F)F)nc(C(F)(F)F)c(CSc2cccc(Cl)c2)c1CC(C)C [Compound 213, Methyl 5-[(3-Chlorophenyl)thiomethyl]-2-(difluoromethyl)-4-(2-methylpropyl)-6-(trifluoromethyl)-3-pyridinecarboxylate]

IC50 [4]: 15 µM
Structure (SMILES): COC(=O)c1c(C(F)F)nc(C(F)(F)F)c(CSc2nc3ccccc3s2)c1CC(C)C [Compound 212, Methyl 5-[(Benzothiazol-2-yl)thiomethyl]-2-(difluoromethyl)-4-(2-methylpropyl)-6-(trifluoromethyl)-3-pyridinecarboxylate]

IC50 [1]: 60 µM
Structure (SMILES): COC(=O)c1c(C(F)F)nc(C(F)(F)F)c(SCc2ccccn2)c1CC(C)C [Compound 233, Methyl 5-[(2-pyridyl)methylthio]-2-(difluoromethyl)-4-(2-methylpropyl)-6-(trifluoromethyl)-3-pyridinecarboxylate]

% transfer at 10 μm (10 μm): 32^D %
Structure (SMILES): COC(=O)c1c(C(F)F)nc(C(F)(F)F)c(SCCF)c1CC(C)C [Compound 148, Methyl 2-(Difluoromethyl)-5-(2-fluoroethylthio)4-(2-methylpropyl)-6-(trifluoromethyl)-3-pyridinecarboxylate]

IC50 [1]: 50 µM
Structure (SMILES): COC(=O)c1c(C(F)F)nc(C(F)(F)F)c(SCc2ccccc2[N+](=O)[O-])c1CC(C)C [Compound 223]

IC50 [1]: 50 µM
Structure (SMILES): COC(=O)c1c(C(F)F)nc(C(F)(F)F)c(SCc2cc(Cl)cc(Cl)c2)c1CC(C)C [Compound 243]

IC50 [4]: 20 µM
Structure (SMILES): COC(=O)c1c(C(F)F)nc(C(F)(F)F)c(CSc2nc3ccccc3o2)c1CC(C)C [Compound 205, Methyl 5-[(Benzoxazol-2-yl)thiomethyl]-2-(difluoromethyl)-4-(2-methylpropyl)-6-(trifluoromethyl)-3-pyridinecarboxylate]
